Experiment: Inhibition of LDHB Activity
Method: This example describes a human LDHB biochemical assay employed in the characterization of a compound of Formula I in an embodiment of the dislcosure.Test compounds were placed in a Greiner Bio-One (Monroe, N.C.) 1536-well black solid bottom assay plate. 200 mM Tris HCl, pH 7.4, 100 μM EDTA and 0.01% TWEEN-20 , final concentration, was used as the assay buffer. The LDHB reagent was 2 nM Human LDHB (Meridian Life Science, Inc., Memphis, Tenn.), final concentration, in assay buffer. The substrate reagent was 0.13 mM NADH and 0.16 mM sodium pyruvate, final concentration, in assay buffer. The resazurin/diaphorase coupling reagent was 0.037 mM resazurin and 0.133 mg/mL diaphorase, final concentration, in assay buffer.

Row | Compound | IC50
1 | COc1ccc(-c2cccc(-c3nn(-c4nc(C(=O)O)cs4)c(CC4CC4)c3Cc3ccc(S(N)(=O)=O)c(F)c3)c2)cc1C [US11752138, Compound 165] | < 100 nM
2 | Cc1ccc(C#Cc2cc(-c3nn(-c4nc(C(=O)O)cs4)c(CC4CC4)c3Cc3ccc(S(N)(=O)=O)c(F)c3)ccc2F)s1 [US11752138, Compound 249] | < 100 nM
3 | Cc1cnc(C#Cc2cccc(-c3nn(-c4nc(C(=O)O)cs4)c(CC4CC4)c3Cc3ccc(S(N)(=O)=O)c(F)c3)c2)o1 [US11752138, Compound 122] | < 100 nM
4 | Cc1ccc(C2CC2c2cccc(-c3nn(-c4nc(C(=O)O)cs4)c(CC4CC4)c3Cc3ccc(S(N)(=O)=O)c(F)c3)c2)s1 (configuration not stated) [US11752138, Compound 130] | < 100 nM
5 | CC(C)c1ccc(-c2cccc(-c3nn(-c4nc(C(=O)O)cs4)c(CC4CC4)c3Cc3ccc(S(N)(=O)=O)c(F)c3)c2)cc1 [US11752138, Compound 169] | < 100 nM
6 | NS(=O)(=O)c1ccc(Cc2c(-c3ccc(F)c(-c4ncc[nH]4)c3)nn(-c3nc(C(=O)O)cs3)c2CC2CC2)cc1F [US11752138, Compound 159] | < 100 nM
7 | Cc1ccc(/C=C/c2cccc(-c3nn(-c4nc(C(=O)O)cs4)c(CC4CC4)c3Cc3ccc(S(N)(=O)=O)c(F)c3)c2)s1 [US11752138, Compound 119] | < 100 nM
8 | NS(=O)(=O)c1ccc(Cc2c(-c3cccc(C#Cc4ccc(Cl)s4)c3)nn(-c3nc(C(=O)O)cs3)c2CC2CC2)cc1F [US11752138, Compound 118] | < 100 nM
9 | CC(C)N1CC2(CN(c3cc(-c4nn(-c5nc(C(=O)O)cs5)c(CC5CC5)c4Cc4ccc(S(N)(=O)=O)c(F)c4)ccc3F)C2)C1 [US11752138, Compound 158] | < 100 nM
10 | Cc1ccc(C#Cc2cc(-c3nn(-c4nc(C(=O)O)cs4)c(CCC4CC4)c3Cc3ccc(S(N)(=O)=O)c(F)c3)ccc2F)s1 [US11752138, Compound 113] | < 100 nM
11 | N#Cc1ccc(-c2cccc(-c3nn(-c4nc(C(=O)O)cs4)c(CC4CC4)c3Cc3ccc(S(N)(=O)=O)c(F)c3)c2)cc1 [US11752138, Compound 176] | < 100 nM
12 | CC1(C)CC=C(c2cc(-c3nn(-c4nc(C(=O)O)cs4)c(CC4CC4)c3Cc3ccc(S(N)(=O)=O)c(F)c3)ccc2F)CC1 [US11752138, Compound 106] | < 100 nM
13 | Cc1ccc(C#Cc2cccc(-c3nn(-c4nc(C(=O)O)cs4)c(CC4CC4)c3Cc3ccc(S(N)(=O)=O)c(F)c3)c2)s1 [US11752138, Compound 112] | < 100 nM
14 | Cc1ccc(-c2cccc(-c3nn(-c4nc(C(=O)O)cs4)c(CC4CC4)c3Cc3ccc(S(N)(=O)=O)c(F)c3)c2)cc1F [US11752138, Compound 167] | < 100 nM
15 | Cc1ccsc1C#Cc1cccc(-c2nn(-c3nc(C(=O)O)cs3)c(CC3CC3)c2Cc2ccc(S(N)(=O)=O)c(F)c2)c1 [US11752138, Compound 120] | < 100 nM
16 | Cc1ccc(C#Cc2cccc(-c3nn(-c4nc(C(=O)O)cs4)c(CCC4CC4)c3Cc3ccc(S(N)(=O)=O)c(F)c3)c2)s1 [US11752138, Compound 115] | < 100 nM
17 | COc1ccc(-c2cc(-c3nn(-c4nc(C(=O)O)cs4)c(CC4CC4)c3Cc3ccc(S(N)(=O)=O)c(F)c3)ccc2F)cc1C [US11752138, Compound 150] | < 100 nM
18 | NS(=O)(=O)c1ccc(Cc2c(-c3cccc(-c4ccc(Cl)cc4)c3)nn(-c3nc(C(=O)O)cs3)c2CC2CC2)cc1F [US11752138, Compound 166] | < 100 nM
19 | COC1CC=C(c2cc(-c3nn(-c4nc(C(=O)O)cs4)c(CC4CC4)c3Cc3ccc(S(N)(=O)=O)c(F)c3)ccc2F)CC1 (configuration not stated) [US11752138, Compound 104] | < 100 nM
20 | CC(C)c1cccc(-c2cccc(-c3nn(-c4nc(C(=O)O)cs4)c(CC4CC4)c3Cc3ccc(S(N)(=O)=O)c(F)c3)c2)c1 [US11752138, Compound 173] | < 100 nM
21 | CC1CCCC=C1c1cc(-c2nn(-c3nc(C(=O)O)cs3)c(CC3CC3)c2Cc2ccc(S(N)(=O)=O)c(F)c2)ccc1F (configuration not stated) [US11752138, Compound 103] | < 100 nM
22 | CC(=O)c1cc(-c2nn(-c3nc(C(=O)O)cs3)c(CC3CC3)c2Cc2ccc(S(N)(=O)=O)c(F)c2)ccc1F [US11752138, Compound 140] | < 100 nM
23 | Cc1ncc(C#Cc2cc(-c3nn(-c4nc(C(=O)O)cs4)c(CC4CC4)c3Cc3ccc(S(N)(=O)=O)c(F)c3)ccc2F)s1 [US11752138, Compound 111] | < 100 nM

Results, then the compound that gave them:

Row | IC50 | Compound
24 | < 100 nM | Cc1ccc(-c2cc(-c3nn(-c4nc(C(=O)O)cs4)c(CC4CC4)c3Cc3ccc(S(N)(=O)=O)c(F)c3)ccc2F)cc1F [US11752138, Compound 137]
25 | < 100 nM | CC1CC=C(c2cc(-c3nn(-c4nc(C(=O)O)cs4)c(CC4CC4)c3Cc3ccc(S(N)(=O)=O)c(F)c3)ccc2F)CC1 (configuration not stated) [US11752138, Compound 101]
26 | < 100 nM | Cc1ccc(C#Cc2cccc(-c3nn(-c4nc(C(=O)O)cs4)c(CC4CC4)c3Cc3ccc(S(N)(=O)=O)c(F)c3)c2)o1 [US11752138, Compound 129]
27 | < 100 nM | NS(=O)(=O)c1ccc(Cc2c(-c3cccc(-c4cccc(Cl)c4)c3)nn(-c3nc(C(=O)O)cs3)c2CC2CC2)cc1F [US11752138, Compound 175]
28 | < 100 nM | Cc1cc(C)c(C#Cc2cccc(-c3nn(-c4nc(C(=O)O)cs4)c(CC4CC4)c3Cc3ccc(S(N)(=O)=O)c(F)c3)c2)s1 [US11752138, Compound 125]
29 | < 100 nM | NS(=O)(=O)c1ccc(Cc2c(-c3ccc(F)c(NC(=O)c4ccccc4)c3)nn(-c3nc(C(=O)O)cs3)c2CC2CC2)cc1F [US11752138, Compound 152]
30 | < 100 nM | NS(=O)(=O)c1ccc(Cc2c(-c3ccc(F)c(-c4cc(F)cc(F)c4)c3)nn(-c3nc(C(=O)O)cs3)c2CC2CC2)cc1F [US11752138, Compound 156]
31 | < 100 nM | Cc1ccc(C#Cc2cccc(-c3nn(-c4nc(C(=O)O)cs4)c(CC4(C)CC4)c3Cc3ccc(S(N)(=O)=O)c(F)c3)c2)s1 [US11752138, Compound 123]
32 | < 100 nM | Cc1ncc(-c2cc(-c3nn(-c4nc(C(=O)O)cs4)c(CC4CC4)c3Cc3ccc(S(N)(=O)=O)c(F)c3)ccc2F)[nH]1 [US11752138, Compound 161]
33 | < 100 nM | CN(C)c1ccc(-c2cccc(-c3nn(-c4nc(C(=O)O)cs4)c(CC4CC4)c3Cc3ccc(S(N)(=O)=O)c(F)c3)c2)cc1 [US11752138, Compound 178]
34 | < 100 nM | Cc1cnc(C#Cc2cc(-c3nn(-c4nc(C(=O)O)cs4)c(CC4CC4)c3Cc3ccc(S(N)(=O)=O)c(F)c3)ccc2F)s1 [US11752138, Compound 114]
35 | < 100 nM | NS(=O)(=O)c1ccc(Cc2c(-c3cccc(-c4ccc(Cl)c(F)c4)c3)nn(-c3nc(C(=O)O)cs3)c2CC2CC2)cc1F [US11752138, Compound 164]
36 | < 100 nM | COc1cc(OC)cc(-c2cc(-c3nn(-c4nc(C(=O)O)cs4)c(CC4CC4)c3Cc3ccc(S(N)(=O)=O)c(F)c3)ccc2F)c1 [US11752138, Compound 153]
37 | < 100 nM | NS(=O)(=O)c1ccc(Cc2c(-c3cccc(C#Cc4ccc(C(F)F)s4)c3)nn(-c3nc(C(=O)O)cs3)c2CC2CC2)cc1F [US11752138, Compound 121]

Reference: BindingDB's records for patent US11752138 (Vanderbilt University, 2023)
